Data from patent US20240407363A1 (priority 2021, published 2024).
Values after ≈ are worked out from the molar mass of the structure shown.

System: X. perforans GEV-485
Test: In vitro MIC and MBC determination in nutrient broth / on NA plates
Assay type: cell-based
Conditions: three trials
Description: X. perforans strain GEV-485, a copper-resistant strain, was used in this study to evaluate the antibacterial activity of Hx. Working cultures of GEV-485 were retrieved from −80° C. storage vials containing bacterial suspensions in 30% glycerol (v/v). Bacterial cells were taken from the storage, streaked on nutrient agar (NA; Difco™ Sparks, MD) plates and incubated for 48 h at 28° C. and single colonies were picked and streaked on NA plates to ensure bacterial purity for further cultures. NA amended with copper (II) sulfate pentahydrate (CuSO4·5H2O) (Fisher Scientific-Hampton, NH) at 20 ppm, was used as copper tolerance selective agent. To prepare the bacterial inoculum, a single bacterial colony was streaked on NA and incubated for 24 h at 28° C. From those plates, loops of bacterial cells were collected and resuspended in SDW amended with 0.01 M MgSO4. The bacterial concentration was adjusted to ˜5.0×10^8 colony-forming units (CFU)/mL based on an optical density (OD) of 0.3 at 600 nm. The in vitro studies were conducted to determine the minimum inhibitory concentration (MIC), minimum bactericidal concentration (MBC), and the antibacterial activity at different time points.
To determine MIC of Hx against X. perforans GEV-485, individual 96-well plates containing 100 μL of nutrient broth (NB) with varied copper and Hx concentrations were inoculated with 100 μL of the GEV-485 suspension at the concentration of 1.0×10^8 CFU/mL. The final chemical concentrations on the wells were 16, 32, 64, 128, 256, 512, 1024, 2048, 4096 and 8192 mg/L. Three wells with 100 µL of NB and 100 μL of the bacterial suspension were the controls. Solutions in all wells were thoroughly mixed by pipetting. The plate was, then, covered with a lid and incubated under stationary conditions at 28° C. for 24 h. The value of MIC for Hx and copper was determined as the minimum concentration (mg/L), at which the bacterial growth was inhibited (the solution was clear), among all tested concentrations of each chemical. After MIC was determined, an aliquot of 20 μL of the solution from the wells that gave a clear solution was plated on NA. […] The MBC was determined as the minimum concentration, at which >99.9% of the initial bacterial populations were killed and no visible growth of the bacterium was observed on the NA plates among all tested concentrations of antimicrobial agents. The experiment was repeated two more times, with three replications for each treatment.

Work on `CCCCCC(=O)O` [Hexanoic acid, hexanoic acid] yielded an MIC (28° C. for 24 h, copper-resistant strain, read-out: MIC) of 512 µg/mL (≈ 4.41 mM) and an MBC (>99.9% of initial bacterial populations killed, no visible growth on NA, read-out: MBC) of 1020 µg/mL (≈ 8.82 mM).
